We go through one compound from publication PMC3135366 (The Journal of Experimental Medicine, 2011).

The assay concerns the target T1, E. coli DOXPRI (Escherichia coli, UniProt P45568).
T1 sequence (P45568 1-398): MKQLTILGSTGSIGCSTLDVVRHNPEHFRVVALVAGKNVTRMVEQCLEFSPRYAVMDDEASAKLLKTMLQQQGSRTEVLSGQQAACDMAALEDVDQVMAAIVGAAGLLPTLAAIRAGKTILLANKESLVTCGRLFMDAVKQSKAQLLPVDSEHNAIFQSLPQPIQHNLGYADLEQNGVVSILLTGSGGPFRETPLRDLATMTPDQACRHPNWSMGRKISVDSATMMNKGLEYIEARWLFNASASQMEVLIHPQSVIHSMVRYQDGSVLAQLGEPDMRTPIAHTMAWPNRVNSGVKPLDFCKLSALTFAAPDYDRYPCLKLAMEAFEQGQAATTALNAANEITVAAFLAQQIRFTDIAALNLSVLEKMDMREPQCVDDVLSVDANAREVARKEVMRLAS
In words: NADPH oxidation assay. In kind it is biochemical.

`NC(=O)C1=CN([C@@H]2O[C@H](COP(=O)(O)OP(=O)(O)OC[C@H]3O[C@@H](n4cnc5c(N)ncnc54)[C@H](OP(=O)(O)O)[C@@H]3O)[C@@H](O)[C@H]2O)C=CC1` [NADPH]: the NADPH oxidation assay entry was “noted robust activity for the E. coli enzyme expressed in parallel”.
